Experimental data: ChEMBL document CHEMBL5543111, “Uncovering PROTAC Sensitivity and Efficacy by Multidimensional Proteome Profiling: A Case for STAT3” (J Med Chem, 2024)
Active and inactive are the calls of the source.

Columns and labels:
[1] = biological target: Protein cereblon/Bromodomain-containing protein 2 (Homo sapiens) (UniProt P25440+Q96SW2); test: PROTAC activity at CRBN/BRD2 in human A549 cells assessed as degradation of BRD2 protein level at 100 nM incubated for 24 hrs; assay type: cell-based
[2] = biological target: Protein cereblon/Bromodomain-containing protein 3 (Homo sapiens) (UniProt Q15059+Q96SW2); test: PROTAC activity at CRBN/BRD3 in human A549 cells assessed as degradation of BRD3 protein level at 100 nM incubated for 24 hrs; assay type: cell-based
[3] = biological target: Protein cereblon/Bromodomain-containing protein 4 (Homo sapiens) (UniProt O60885+Q96SW2); test: PROTAC activity at CRBN/BRD4 in human A549 cells assessed as degradation of BRD4 protein level at 100 nM incubated for 24 hrs; assay type: cell-based
[4] = tested on: A549; test: Upregulation of p53 protein expression in human A549 cells at 10 to 100 nM; assay type: functional, cell-based; details: dose 10-100 nM, time 3-24 hrs, TDE = time-dependent effect
[5] = tested on: A549; test: Upregulation of p53 protein expression in human A549 cells measured after 3 to 24 hrs; assay type: functional, cell-based; details: dose 10-100 nM, time 3-24 hrs
[6] = tested on: A549; test: Upregulation of p21 protein expression in human A549 cells at 100 nM measured after 24 hrs; assay type: functional, cell-based

Measured: Activity

Sequence of Protein cereblon/Bromodomain-containing protein 2 (Homo sapiens) (P25440 whole entry, looked up): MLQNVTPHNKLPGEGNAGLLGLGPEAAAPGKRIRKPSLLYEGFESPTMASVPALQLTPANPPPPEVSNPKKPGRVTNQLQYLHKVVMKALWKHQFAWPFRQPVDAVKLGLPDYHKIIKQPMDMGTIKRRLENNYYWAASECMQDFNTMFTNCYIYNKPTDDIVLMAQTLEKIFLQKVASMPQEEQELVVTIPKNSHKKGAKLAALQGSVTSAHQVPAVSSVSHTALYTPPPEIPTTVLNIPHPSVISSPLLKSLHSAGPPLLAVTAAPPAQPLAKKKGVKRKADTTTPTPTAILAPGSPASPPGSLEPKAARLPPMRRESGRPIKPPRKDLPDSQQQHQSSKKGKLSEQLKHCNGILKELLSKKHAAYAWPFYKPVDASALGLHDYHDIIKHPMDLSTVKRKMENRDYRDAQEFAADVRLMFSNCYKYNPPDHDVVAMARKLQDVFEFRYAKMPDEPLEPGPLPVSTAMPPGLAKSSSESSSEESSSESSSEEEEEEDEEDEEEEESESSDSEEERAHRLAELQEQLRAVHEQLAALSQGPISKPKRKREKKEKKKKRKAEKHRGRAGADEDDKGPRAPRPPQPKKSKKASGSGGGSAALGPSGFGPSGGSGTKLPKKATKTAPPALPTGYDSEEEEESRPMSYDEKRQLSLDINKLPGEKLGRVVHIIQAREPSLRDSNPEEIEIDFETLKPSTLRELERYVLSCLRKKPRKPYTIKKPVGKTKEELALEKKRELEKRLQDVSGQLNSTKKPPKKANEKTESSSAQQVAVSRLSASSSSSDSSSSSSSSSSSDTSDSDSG
Sequence of Protein cereblon/Bromodomain-containing protein 2 (Homo sapiens) (Q96SW2 whole entry, looked up): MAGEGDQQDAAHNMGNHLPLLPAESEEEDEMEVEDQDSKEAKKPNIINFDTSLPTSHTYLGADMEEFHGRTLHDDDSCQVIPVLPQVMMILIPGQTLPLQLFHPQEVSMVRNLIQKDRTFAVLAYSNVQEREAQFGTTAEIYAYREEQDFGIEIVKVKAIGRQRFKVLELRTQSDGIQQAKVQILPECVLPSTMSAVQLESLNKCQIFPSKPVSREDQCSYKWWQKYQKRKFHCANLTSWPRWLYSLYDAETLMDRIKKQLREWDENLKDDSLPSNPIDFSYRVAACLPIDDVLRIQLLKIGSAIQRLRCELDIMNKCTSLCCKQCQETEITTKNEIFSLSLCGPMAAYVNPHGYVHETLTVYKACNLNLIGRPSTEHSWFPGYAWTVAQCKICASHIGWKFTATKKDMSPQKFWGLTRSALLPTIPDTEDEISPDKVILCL
Sequence of Protein cereblon/Bromodomain-containing protein 3 (Homo sapiens) (Q15059 2-726 limits assumed): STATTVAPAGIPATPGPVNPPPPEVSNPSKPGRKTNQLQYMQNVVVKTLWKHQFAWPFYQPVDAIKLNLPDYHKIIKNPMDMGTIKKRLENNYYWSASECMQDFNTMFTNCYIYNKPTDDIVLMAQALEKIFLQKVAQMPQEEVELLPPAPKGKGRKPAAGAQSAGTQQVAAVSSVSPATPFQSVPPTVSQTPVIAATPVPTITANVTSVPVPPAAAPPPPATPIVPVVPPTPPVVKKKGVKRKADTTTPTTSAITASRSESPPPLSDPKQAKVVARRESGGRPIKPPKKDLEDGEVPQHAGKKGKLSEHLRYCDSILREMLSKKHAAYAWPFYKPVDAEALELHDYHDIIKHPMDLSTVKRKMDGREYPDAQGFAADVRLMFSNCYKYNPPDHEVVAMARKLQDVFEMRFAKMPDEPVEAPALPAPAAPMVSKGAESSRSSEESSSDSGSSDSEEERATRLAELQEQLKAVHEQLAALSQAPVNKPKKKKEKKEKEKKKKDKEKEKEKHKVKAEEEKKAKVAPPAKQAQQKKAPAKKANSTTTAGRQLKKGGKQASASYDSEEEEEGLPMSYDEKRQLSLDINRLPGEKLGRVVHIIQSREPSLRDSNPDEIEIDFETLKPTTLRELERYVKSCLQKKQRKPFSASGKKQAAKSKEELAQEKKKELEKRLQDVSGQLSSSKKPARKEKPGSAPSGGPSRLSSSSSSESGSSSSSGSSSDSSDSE
Sequence of Protein cereblon/Bromodomain-containing protein 3 (Homo sapiens) (Q96SW2 whole entry partner): as the sequence (Q96SW2 whole entry, looked up) above
Sequence of Protein cereblon/Bromodomain-containing protein 4 (Homo sapiens) (Q96SW2 whole entry, looked up, other chains not shown): as the sequence (Q96SW2 whole entry, looked up) above

CCn1nc(C2CC2)cc1Nc1nc(C(=O)NCCCCCc2cccc3c2CN(C2CCC(=O)NC2=O)C3=O)nc2[nH]c3cc(-c4c(C)noc4C)c(OC)cc3c12 (stereo unspecified)
active: [1] | [2] | [3] | [4] Tde | [5] Dose-Dependent Effect | [6]
